Measured values published in US6849632B2, “Heteroaryl alkyl piperazine derivatives” (CV Therapeutics, Inc., priority 2000, dated 2005).
Read-outs that look alike come from different tables or passages of the source.

How the values were obtained:
[1] = system: mitochondrial fatty acid oxidation using palmitoyl CoA as substrate; assay: Palmitoyl CoA oxidation in isolated rat heart mitochondria; type: biochemical; conditions: for Inhibition of mitochondrial fatty acid oxidation using palmitoyl CoA as substrate - % of Control, 100 μm (%): 100 μm compound, 15 min at 30° C.
Experimental: Rat heart mitochondria were isolated by the method of Nedergard and Cannon (Methods in Enzymol. 55, 3, 1979). Palmitoyl CoA oxidation—The Palmityl CoA oxidation was carried out in a total volume of 100 micro liters containing the following agents: 110 mM KCl, 33 mM Tris buffer at pH 8, 2 mM KPi, 2 mM MgCl2, 0.1 mM EDTA, 14.7 microM defatted BSA, 0.5 mM malic acid, 13 mM carnitine, 1 mM ADP, 52 micrograms of mitochondrial protein, and 16 microM 1-C14 palmitoyl CoA (Sp. Activity 60 mCi/mmole; 20 microCi/ml, using 5 microliters per assay). The compounds of this invention were added in a DMSO solution at the following concentrations: 100 microM, and 50 microM. In each assay, a DMSO control was used. After 15 min at 30° C., the enzymatic reaction was centrifuged (20,000 g for 1 min), and 70 microliters of the supernatant was added to an activated reverse phase silicic acid column (approximately 0.5 ml of silicic acid). The column was eluted with 2 ml of water, and 0.5 ml of the eluent was used for scintillation counting to determine the amount of C^14 trapped as C^14 bicarbonate ion.

[2] = Metabolic stability, incubation with human liver S-9 fractions; type: in vitro ADME; conditions: for Liver S9 Stability Factor: % parent remaining after 30 min at 37 C with human liver S9, divided by average % ranolazine remaining (57%)
Experimental: Metabolic Stability: As a measure of metabolic stability the compounds of this invention were incubated with human liver S-9 microsomal fractions. After, 30 minutes at 37 C, the amount of parent drug remaining was determined using LC-mass spec. The response factors for each compound was determined by establishing a standard curve and using an internal standard during the analysis of the samples. An average of five experiments for percentage of ranolazine remaining at the 30 minute time point is 57%. The compounds of this invention were assayed as described in the protocol below and the percentage of parent remaining was divided by the average % of ranolazine remaining (57%) affording a metabolic stability factor. A compound with a stability number greater than 1.2 has a better stability than ranolazine in the liver S-9 assay. A compound with a stability number between 1.2 and 0.8 has an equivalent stability in the liver S-9 assay.
The purpose of this experiment is to compare the percentages remaining for compounds of this invention with the percentage remaining for ranolazine after 30 minutes of incubation with human liver S9 fractions.
The following reagents were used; Potassium phosphate, 0.5M pH 7.4 (incubation buffer), kept at room temperature; 0.05M MgCl^2 kept at 4° C.; β-Nicotinamide adenine dinucleotide phosphate, tetrasodium salt, reduced form (NADPH), 0.02M solution in water (˜16.6 mg/mL) from Sigma Lot #79H7044 prepared on day of use. 1 mM of ranolazine or Compounds 43, 45, 47, 52, 70, 74, 76, 78, and 80 in ACN further diluted to obtain 100 μM in 10% ACN; Human S9 stock: 20 mg/mL from Gentest.
Incubation mixtures were prepared as follows:
Combine all components with incubation buffer and re-pipette 200 μL/tube+25 μL of the compound being tested along with 25 μL of S-9.
After 5 min of pre-incubation at 37° C., at 0 and 30 min after starting the reaction, a 50 μl aliquot of the incubation mixture was removed and added to 100 μL of 9:1 acetonitrile:methanol containing the internal standard.
The mixture was centrifuged and a 100 μL aliquot of the supernatant was diluted in 1 mL of solvent C (0.1% Formic Acid in water). Then samples were analyzed for change between the ratio of compound to internal standard at time zero and 30 minutes by LC/MS (injected 10 μL).
Samples were analyzed for the starting compounds and potential metabolite/s by LC/MS using an internal standard and an ODS-C18 column with a flow rate of 0.25 ml/min.

[3] = Table 1, read-out: IC50 (μm), inhibition of mitochondrial fatty acid oxidation using palmitoyl CoA as substrate
[4] = Table IA, read-out: Effect on Palmitoyl CoA Oxidation (IC50)

| Liver S9 Stability Factor [2] | IC50 [1, 3] [µM] | percentage of parent drug remaining at the 30 minute time point ([2]; human liver S-9, 30 minutes at 37 C, average of five experiments) [%] | IC50 [1, 4] [µM] | Compound | Inhibition of mitochondrial fatty acid oxidation using palmitoyl CoA as substrate - % of Control, 100 μm (%) [1] [%] |
| --- | --- | --- | --- | --- | --- |
| 0.6 |  |  |  | Cc1cccc(C)c1NC(=O)CN1CCN(CC(O)COc2nc3ccccc3s2)CC1 (centres unmarked) [Compound 43, 2-{4-[3-(benzothiazol-2-yloxy)-2-hydroxy-propyl]-piperazin-1-yl}-N-(2,6-dimethylphenyl)acetamide] | 21 |
| 1.5 | ~125 |  |  | Cc1cccc(C)c1NC(=O)CN1CCN(CC(O)COc2ccc3ncsc3c2)CC1 (centres unmarked) [Compound 47, 2-{4-[3-(benzothiazol-6-yloxy)2-hydroxy-propyl]-piperazin-1-yl}-N-(2,6-dimethylphenyl)-acetamide] | 70 |
| 0.6 |  |  |  | Cc1cccc(C)c1NC(=O)CN1CCN(CC(O)COc2ccc3ncccc3c2)CC1 (centres unmarked) [Compound 78, N-(2,6-dimethylphenyl)-2-{4-[2-hydroxy-3-(quinolin-6-yloxy)-propyl]-piperazin-1-yl}acetamide] | 42 |
| 1.0 |  |  |  | Cc1cccc(C)c1NC(=O)CN1CCN(CC(O)COc2ccnc3ccccc23)CC1 (centres unmarked) [Compound 74, N-(2,6-dimethylphenyl)-2-{4-[2-hydroxy-3-(quinolin-4-yloxy)-propyl]-piperazin-1-yl}acetamide] | 12 |
|  |  | 57 |  | COc1ccccc1OCC(O)CN1CCN(CC(=O)Nc2c(C)cccc2C)CC1 (racemic) [ranolazine, (±)-N-(2,6-dimethylphenyl)-4-[2-hydroxy-3-(2-methoxyphenoxy)-propyl]-1-piperazineacetamide, reference compound] |  |
| 1.1 | ~125 |  |  | Cc1cccc(C)c1NC(=O)CN1CCN(CC(O)COc2cccc3[nH]c(C(N)=O)cc23)CC1 (centres unmarked) [Compound 46, 4-(3-{4-[(2,6-dimethylphenylcarbamoyl)-methyl]-piperazin-1-yl}-2-hydroxypropoxy)-1H-indole-2-carboxylic acid amide] | 61 |
| 0.5 | ~1 |  | 0.7 | Cc1nc2cc(OCC(O)CN3C(C)CN(CC(=O)Nc4c(C)cccc4C)CC3C)ccc2s1 (stereo not drawn) [Compound 52, N-(2,6-dimethylphenyl)-2-{4-[2-hydroxy-3-(2-methyl-benzothiazol-5-yloxy)-propyl]-3,5-cis dimethyl-piperazine-1-yl}acetamide] | 95 |
| 0.5 |  |  |  | Cc1ccc2ccc(OCC(O)CN3CCN(CC(=O)Nc4c(C)cccc4C)CC3)cc2n1 (centres unmarked) [Compound 80, N-(2,6-dimethylphenyl)-2-{4-[2-hydroxy-3-(2-methyl-quinolin-7-yloxy)-propyl]-piperazin-1-yl}acetamide] | 22 |
| 0.8 | ~20 |  | 15 | Cc1nc2cc(OCC(O)CN3CCN(CC(=O)Nc4c(C)cccc4C)CC3)ccc2s1 (centres unmarked) [Compound 45, N-(2,6-dimethylphenyl)-2-{4-[2-hydroxy-3-(2-methyl-benzothiazol-5-yloxy)-propyl]-piperazin-1-yl}acetamide] | 87 |
| 0.8 |  |  |  | Cc1cccc(C)c1NC(=O)CN1CCN(CC(O)COc2cccc3cnccc23)CC1 (centres unmarked) [Compound 76, N-(2,6-dimethylphenyl)-2-{4-[2-hydroxy-3-(isoquinolin-5-yloxy)-propyl]-piperazin-1-yl}acetamide] | 26 |
| 0.1 |  |  |  | Cc1cccc(C)c1NC(=O)CN1CCN(CC(O)COc2cnc3ccccc3n2)CC1 (centres unmarked) [Compound 70, N-(2,6-dimethylphenyl)-2-{4-[2-hydroxy-3-(quinoxalin-2-yloxy)-propyl]-piperazin-1-yl}acetamide] |  |
